Tests used:
Assay in all cases: KINOMEscan competition binding
IGF1R = IGF1R (Homo sapiens, UniProt P08069); conditions: read-out: %Inh IGF1R
CAMK2A = CAMK2A (Homo sapiens, UniProt Q9UQM7); conditions: read-out: %Inh CAMK2A
ERBB3 = ERBB3 (Homo sapiens, UniProt P21860); conditions: read-out: %Inh ERBB3
BUB1 = BUB1 (Homo sapiens, UniProt O43683); conditions: read-out: %Inh BUB1
AKT2 = AKT2 (Homo sapiens, UniProt P31751); conditions: read-out: %Inh AKT2
EPHB2 = target: T1, EPHB2 (Homo sapiens, UniProt P29323); conditions: read-out: %Inh EPHB2
T1 sequence (P29323 19-1055): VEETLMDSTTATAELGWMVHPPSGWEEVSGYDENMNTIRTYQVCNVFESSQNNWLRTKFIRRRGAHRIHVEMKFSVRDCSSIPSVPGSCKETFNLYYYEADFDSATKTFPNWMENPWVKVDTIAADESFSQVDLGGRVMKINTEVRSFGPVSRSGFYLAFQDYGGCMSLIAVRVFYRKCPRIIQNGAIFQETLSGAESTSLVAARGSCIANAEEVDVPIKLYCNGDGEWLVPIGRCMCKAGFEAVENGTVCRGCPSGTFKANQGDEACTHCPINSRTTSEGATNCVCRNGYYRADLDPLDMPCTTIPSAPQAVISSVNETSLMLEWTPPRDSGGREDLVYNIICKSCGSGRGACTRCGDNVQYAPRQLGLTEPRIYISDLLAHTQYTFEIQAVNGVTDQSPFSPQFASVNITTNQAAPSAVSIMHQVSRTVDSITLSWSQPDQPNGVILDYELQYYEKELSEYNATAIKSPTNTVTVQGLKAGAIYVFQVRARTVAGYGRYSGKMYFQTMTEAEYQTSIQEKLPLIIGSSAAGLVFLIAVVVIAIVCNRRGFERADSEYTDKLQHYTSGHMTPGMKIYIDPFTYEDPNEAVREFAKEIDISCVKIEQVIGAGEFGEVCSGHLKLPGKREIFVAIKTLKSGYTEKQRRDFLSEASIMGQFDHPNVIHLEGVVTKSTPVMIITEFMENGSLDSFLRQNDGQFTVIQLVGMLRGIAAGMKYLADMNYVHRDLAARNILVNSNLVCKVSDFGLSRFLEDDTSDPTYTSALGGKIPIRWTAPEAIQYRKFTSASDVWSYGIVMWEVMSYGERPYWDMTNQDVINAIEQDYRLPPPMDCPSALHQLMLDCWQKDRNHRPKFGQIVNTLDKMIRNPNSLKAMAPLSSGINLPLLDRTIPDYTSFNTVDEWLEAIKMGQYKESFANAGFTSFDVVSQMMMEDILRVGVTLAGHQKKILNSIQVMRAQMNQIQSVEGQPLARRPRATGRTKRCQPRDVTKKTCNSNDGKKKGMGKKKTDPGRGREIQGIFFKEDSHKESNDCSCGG

EPHB3 = target: T2, EPHB3 (Homo sapiens, UniProt P54753); conditions: read-out: %Inh EPHB3
T2 sequence (P54753 34-998): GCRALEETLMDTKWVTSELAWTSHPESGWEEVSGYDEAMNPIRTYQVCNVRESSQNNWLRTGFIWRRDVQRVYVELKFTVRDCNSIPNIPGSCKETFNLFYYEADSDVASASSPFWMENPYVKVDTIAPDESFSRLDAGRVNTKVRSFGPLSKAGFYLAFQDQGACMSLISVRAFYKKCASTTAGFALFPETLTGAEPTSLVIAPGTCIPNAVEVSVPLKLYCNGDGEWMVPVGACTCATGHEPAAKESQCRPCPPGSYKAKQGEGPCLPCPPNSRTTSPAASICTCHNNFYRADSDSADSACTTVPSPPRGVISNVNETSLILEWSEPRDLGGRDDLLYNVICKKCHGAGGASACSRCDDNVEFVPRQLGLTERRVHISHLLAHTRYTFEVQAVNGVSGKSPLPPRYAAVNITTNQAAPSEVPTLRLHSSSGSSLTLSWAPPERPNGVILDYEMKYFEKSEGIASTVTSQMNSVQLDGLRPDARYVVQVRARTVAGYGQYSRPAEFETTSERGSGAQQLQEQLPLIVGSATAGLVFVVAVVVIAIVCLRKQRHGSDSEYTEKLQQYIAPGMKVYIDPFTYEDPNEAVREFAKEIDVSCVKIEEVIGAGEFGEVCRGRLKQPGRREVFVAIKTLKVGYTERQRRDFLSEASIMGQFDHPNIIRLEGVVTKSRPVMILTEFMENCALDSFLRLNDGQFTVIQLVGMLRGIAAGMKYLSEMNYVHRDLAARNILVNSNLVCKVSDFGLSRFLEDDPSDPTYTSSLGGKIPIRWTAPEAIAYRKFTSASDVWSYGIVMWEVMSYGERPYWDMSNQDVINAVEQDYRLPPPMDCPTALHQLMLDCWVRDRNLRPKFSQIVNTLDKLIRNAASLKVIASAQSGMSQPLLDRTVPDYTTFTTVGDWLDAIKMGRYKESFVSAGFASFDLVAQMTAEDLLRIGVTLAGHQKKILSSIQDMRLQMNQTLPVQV

AKT2, sequence (P31751 whole entry): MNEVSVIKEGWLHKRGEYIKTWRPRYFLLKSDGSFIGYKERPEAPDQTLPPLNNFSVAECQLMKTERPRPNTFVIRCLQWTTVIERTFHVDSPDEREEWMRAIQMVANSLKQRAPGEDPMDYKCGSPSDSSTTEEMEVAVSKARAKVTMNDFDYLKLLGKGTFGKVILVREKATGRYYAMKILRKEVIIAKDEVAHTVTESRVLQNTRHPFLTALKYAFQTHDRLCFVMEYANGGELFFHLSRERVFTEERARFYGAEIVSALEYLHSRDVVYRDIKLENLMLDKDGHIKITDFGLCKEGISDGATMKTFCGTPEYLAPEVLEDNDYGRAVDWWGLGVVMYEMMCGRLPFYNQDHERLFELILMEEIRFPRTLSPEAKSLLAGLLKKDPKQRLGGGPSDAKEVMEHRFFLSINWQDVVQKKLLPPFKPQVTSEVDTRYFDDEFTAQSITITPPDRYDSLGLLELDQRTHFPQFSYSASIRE
ERBB3, sequence (P21860 20-1342): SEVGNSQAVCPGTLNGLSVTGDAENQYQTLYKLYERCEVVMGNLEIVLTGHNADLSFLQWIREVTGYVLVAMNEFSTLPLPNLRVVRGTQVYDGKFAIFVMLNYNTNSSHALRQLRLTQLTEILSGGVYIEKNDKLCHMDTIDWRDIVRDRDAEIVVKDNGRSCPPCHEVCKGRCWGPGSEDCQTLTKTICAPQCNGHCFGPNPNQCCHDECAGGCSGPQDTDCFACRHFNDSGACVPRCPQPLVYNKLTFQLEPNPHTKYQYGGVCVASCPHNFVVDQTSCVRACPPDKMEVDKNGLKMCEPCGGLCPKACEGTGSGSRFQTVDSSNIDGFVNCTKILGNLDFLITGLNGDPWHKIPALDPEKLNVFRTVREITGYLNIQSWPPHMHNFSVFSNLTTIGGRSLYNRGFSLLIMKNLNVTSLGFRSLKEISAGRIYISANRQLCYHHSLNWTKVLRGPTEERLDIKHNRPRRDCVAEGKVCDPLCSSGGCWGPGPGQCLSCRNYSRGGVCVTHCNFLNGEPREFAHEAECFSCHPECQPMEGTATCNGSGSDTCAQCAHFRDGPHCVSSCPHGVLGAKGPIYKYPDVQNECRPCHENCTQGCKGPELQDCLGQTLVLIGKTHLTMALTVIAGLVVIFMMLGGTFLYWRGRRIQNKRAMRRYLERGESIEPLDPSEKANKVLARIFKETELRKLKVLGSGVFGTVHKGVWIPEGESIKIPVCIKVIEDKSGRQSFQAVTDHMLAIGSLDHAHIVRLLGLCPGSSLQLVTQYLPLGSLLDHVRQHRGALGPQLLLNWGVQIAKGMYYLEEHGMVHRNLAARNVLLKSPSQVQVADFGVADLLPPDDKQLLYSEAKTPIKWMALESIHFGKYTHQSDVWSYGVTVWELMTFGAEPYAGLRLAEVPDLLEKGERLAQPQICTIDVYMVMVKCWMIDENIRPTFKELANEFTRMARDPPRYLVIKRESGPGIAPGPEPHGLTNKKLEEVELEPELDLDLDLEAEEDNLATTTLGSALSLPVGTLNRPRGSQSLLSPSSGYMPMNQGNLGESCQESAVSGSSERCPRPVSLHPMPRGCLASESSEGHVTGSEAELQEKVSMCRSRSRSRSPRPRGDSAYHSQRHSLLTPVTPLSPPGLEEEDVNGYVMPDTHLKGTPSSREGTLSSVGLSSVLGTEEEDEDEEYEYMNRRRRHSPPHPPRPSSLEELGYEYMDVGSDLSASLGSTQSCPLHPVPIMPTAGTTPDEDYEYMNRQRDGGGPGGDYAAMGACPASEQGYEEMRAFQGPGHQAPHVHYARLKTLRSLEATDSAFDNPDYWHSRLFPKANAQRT
CAMK2A, sequence (Q9UQM7 whole entry): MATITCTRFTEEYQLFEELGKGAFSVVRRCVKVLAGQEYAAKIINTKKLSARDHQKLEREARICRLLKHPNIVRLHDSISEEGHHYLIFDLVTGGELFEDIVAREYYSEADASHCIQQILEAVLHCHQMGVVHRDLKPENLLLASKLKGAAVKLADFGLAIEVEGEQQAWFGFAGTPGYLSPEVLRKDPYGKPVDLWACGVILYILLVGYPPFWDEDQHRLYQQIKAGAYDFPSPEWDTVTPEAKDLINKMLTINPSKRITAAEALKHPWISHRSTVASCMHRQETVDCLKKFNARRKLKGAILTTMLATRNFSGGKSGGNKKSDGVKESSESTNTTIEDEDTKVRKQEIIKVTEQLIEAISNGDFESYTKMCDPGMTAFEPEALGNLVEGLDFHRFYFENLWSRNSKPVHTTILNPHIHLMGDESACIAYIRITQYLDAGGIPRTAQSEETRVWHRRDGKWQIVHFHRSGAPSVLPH
IGF1R, sequence (P08069 31-1367): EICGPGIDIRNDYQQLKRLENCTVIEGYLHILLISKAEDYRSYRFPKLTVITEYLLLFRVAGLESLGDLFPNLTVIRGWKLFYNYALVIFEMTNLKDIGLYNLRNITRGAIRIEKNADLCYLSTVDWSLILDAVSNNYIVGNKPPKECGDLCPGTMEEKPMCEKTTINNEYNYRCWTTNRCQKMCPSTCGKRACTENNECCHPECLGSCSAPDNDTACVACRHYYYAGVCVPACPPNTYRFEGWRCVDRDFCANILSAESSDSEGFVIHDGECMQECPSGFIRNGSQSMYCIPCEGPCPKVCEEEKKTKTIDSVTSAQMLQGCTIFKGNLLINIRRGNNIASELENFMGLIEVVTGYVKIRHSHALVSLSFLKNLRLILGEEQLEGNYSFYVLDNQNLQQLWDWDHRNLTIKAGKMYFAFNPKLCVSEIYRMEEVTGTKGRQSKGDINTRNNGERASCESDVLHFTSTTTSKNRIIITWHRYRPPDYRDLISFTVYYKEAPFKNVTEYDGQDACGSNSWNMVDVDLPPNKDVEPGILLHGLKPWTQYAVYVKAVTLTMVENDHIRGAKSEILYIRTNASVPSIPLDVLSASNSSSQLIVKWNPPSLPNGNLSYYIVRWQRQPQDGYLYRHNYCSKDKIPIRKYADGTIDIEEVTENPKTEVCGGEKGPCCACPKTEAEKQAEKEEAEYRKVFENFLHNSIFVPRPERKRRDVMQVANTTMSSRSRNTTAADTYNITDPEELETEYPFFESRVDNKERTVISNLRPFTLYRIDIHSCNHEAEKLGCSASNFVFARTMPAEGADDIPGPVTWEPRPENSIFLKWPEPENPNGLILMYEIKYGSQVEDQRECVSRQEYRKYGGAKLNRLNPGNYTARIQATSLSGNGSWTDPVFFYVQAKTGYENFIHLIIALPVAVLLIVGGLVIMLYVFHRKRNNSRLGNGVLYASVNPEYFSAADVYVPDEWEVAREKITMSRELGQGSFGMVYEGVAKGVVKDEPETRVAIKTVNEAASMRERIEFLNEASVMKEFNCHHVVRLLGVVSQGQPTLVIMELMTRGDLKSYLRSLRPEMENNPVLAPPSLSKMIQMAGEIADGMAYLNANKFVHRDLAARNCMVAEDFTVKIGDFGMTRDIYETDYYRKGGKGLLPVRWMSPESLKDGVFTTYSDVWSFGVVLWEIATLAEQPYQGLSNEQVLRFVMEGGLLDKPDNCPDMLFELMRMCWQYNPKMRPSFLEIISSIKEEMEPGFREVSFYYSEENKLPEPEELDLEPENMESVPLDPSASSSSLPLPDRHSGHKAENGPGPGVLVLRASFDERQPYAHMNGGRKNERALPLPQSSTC
BUB1, sequence (O43683 whole entry): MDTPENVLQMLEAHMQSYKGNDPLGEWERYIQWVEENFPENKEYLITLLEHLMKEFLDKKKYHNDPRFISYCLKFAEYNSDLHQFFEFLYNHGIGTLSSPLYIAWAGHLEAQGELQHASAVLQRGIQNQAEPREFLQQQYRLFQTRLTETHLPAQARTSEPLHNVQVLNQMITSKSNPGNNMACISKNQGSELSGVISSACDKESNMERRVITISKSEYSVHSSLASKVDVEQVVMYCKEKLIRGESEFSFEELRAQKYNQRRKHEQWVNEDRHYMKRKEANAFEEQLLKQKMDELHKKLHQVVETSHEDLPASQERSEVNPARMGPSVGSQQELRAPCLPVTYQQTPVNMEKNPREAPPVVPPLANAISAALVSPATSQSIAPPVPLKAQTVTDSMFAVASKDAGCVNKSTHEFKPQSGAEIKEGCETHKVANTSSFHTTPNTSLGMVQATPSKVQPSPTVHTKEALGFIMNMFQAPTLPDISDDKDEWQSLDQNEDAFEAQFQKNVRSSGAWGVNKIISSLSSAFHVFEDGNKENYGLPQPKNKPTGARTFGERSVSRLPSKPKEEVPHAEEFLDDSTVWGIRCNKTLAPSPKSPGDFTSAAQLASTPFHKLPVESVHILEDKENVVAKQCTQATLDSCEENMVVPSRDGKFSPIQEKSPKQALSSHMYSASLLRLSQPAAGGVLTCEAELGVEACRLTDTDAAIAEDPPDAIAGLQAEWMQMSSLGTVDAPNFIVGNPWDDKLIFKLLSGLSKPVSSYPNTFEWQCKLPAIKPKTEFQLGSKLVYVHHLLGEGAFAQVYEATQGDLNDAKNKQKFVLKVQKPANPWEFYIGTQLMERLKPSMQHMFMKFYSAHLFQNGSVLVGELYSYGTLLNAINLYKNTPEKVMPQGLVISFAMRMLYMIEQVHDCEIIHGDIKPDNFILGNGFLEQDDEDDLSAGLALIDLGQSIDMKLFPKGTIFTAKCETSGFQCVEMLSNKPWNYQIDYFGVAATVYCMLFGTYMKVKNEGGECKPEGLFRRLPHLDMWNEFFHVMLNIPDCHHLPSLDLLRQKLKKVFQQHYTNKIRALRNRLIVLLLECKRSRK

| SMILES | inhibition at 1 µM (IGF1R) | inhibition at 1 µM (CAMK2A) | inhibition at 1 µM (ERBB3) | inhibition at 1 µM (BUB1) | inhibition at 1 µM (AKT2) | inhibition at 1 µM (EPHB2) | inhibition at 1 µM (EPHB3) |
| --- | --- | --- | --- | --- | --- | --- | --- |
| COc1cccc(OC)c1C(=O)Nc1cccc(-c2nn3ccccc3c2-c2ccnc(Nc3cccc(F)c3)n2)c1 [UNC10225310A] | 7% | 27% | 0% | 11% | 0% | 0% | 8% |
| Cc1ccc(NC(=O)Nc2cccc(C(F)(F)F)c2)cc1 [UNC10225187A] | 0% | 32% | 17% | 0% | 3% | 3% | 0% |
| O=c1cc(N2CCOCC2)nc2n(Cc3cccc(Cl)c3Cl)c(C3CC3)nn12 [UNC10225469A] | 0% | 25% | 9% | 0% | 0% | 0% | 7% |
| CS(=O)(=O)Cc1ccc(Nc2nccc(-c3c(-c4cccc(NC(=O)C5CCCCC5)c4)nn4ncccc34)n2)cc1 [UNC10225159A] | 68% | 15% | 22% | 98.7% | 4% | 3% | 5% |
| Cn1cc(-c2cnc(N)c3c(-c4ccc5c(c4)CCN5C(=O)Cc4ccccc4)csc23)cn1 [UNC10225012A] | 0% | 29% | 4% | 0% | 0% | 2% | 4% |
